Source: ChEMBL document CHEMBL4371002 (J Med Chem, 2018)
Converted amounts (≈) assume the structure as drawn. Square brackets hold non-standard residues; d marks the D form. Peptide text beside a SMILES is read from it. * marks the point of attachment. X1 = CC(C)[C@H](/C=C(\Cl)[C@H](C)N)C(=O)*; X3 = CC(C)[C@H](/C=C(\F)[C@H](C)N)C(=O)*; Dip = N[C@H](C(=O)O)C(c1ccccc1)c1ccccc1; X4 = C[C@H](/C=C(\Cl)[C@H](C)N)C(=O)*; X2 = C[C@H](/C=C(\F)[C@H](C)N)C(=O)*; Abu(4,4-F2) = N[C@@H](CC(F)F)C(=O)O; PhLac = O=C(O)[C@@H](O)Cc1ccccc1; Cha = N[C@@H](CC1CCCCC1)C(=O)O; Abu = CC[C@H](N)C(=O)O

How the values were obtained:
NS3 protease = NS3 protease (Hepacivirus C, UniProt C1KIQ2); parameters: species or system Hepacivirus hominis
Chain of NS3 protease (C1KIQ2 whole entry): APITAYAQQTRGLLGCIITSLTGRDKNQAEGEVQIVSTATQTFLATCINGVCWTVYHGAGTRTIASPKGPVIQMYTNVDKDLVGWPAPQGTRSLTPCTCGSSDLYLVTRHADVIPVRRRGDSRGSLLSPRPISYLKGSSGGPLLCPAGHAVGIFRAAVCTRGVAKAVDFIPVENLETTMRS

[1] = molecular target: T1, Parathyroid hormone/parathyroid hormone-related peptide receptor (Homo sapiens, UniProt Q03431)
T1 sequence (Q03431 whole entry): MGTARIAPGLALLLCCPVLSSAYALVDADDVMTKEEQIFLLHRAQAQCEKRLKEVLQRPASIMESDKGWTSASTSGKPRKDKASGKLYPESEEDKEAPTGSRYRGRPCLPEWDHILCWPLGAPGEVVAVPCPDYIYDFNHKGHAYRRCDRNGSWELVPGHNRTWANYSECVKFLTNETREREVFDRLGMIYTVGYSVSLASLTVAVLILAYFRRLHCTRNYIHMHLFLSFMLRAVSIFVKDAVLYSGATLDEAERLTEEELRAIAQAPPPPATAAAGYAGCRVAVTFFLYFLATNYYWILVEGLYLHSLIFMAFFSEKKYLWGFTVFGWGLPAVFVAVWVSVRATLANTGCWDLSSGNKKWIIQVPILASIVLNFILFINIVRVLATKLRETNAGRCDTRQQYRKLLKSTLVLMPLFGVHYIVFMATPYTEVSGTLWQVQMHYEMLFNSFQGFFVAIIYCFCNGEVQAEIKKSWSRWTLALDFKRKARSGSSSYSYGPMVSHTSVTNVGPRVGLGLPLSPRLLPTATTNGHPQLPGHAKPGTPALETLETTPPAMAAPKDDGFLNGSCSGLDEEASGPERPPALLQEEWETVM

[2] = molecular target: T1, Parathyroid hormone/parathyroid hormone-related peptide receptor; test: biochemical
[3] = molecular target: Delta-type opioid receptor (Homo sapiens, UniProt P41143)
Chain of Delta-type opioid receptor (P41143 whole entry): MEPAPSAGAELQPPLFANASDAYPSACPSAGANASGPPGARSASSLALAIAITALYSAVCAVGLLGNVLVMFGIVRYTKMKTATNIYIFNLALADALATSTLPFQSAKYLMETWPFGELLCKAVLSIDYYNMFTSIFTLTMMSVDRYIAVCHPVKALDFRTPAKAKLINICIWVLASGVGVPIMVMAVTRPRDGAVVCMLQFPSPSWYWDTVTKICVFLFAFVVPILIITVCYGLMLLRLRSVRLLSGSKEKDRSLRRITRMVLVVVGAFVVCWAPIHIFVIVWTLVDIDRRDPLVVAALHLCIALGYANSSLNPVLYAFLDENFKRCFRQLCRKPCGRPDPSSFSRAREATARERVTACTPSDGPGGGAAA

physchem [4] = settings: buffer, pH 7.4
[5] = molecular target: Trypanothione reductase (Trypanosoma cruzi) (UniProt P28593)
Chain of Trypanothione reductase (Trypanosoma cruzi) (P28593 whole entry, looked up): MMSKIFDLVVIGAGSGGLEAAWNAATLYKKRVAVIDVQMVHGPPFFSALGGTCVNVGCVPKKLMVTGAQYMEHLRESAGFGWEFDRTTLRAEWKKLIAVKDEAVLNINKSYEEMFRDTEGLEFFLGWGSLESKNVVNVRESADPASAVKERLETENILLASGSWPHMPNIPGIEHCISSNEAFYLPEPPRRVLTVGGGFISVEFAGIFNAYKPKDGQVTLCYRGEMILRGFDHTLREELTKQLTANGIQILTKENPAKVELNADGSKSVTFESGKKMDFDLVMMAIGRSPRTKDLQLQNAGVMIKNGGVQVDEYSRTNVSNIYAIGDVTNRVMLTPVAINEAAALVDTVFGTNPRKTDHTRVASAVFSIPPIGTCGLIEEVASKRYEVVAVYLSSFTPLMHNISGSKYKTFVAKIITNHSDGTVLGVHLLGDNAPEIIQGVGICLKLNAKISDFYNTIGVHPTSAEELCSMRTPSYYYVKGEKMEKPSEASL

Steryl-sulfatase = molecular target: T2, Steryl-sulfatase (Homo sapiens, UniProt P08842)
T2 sequence (P08842 whole entry): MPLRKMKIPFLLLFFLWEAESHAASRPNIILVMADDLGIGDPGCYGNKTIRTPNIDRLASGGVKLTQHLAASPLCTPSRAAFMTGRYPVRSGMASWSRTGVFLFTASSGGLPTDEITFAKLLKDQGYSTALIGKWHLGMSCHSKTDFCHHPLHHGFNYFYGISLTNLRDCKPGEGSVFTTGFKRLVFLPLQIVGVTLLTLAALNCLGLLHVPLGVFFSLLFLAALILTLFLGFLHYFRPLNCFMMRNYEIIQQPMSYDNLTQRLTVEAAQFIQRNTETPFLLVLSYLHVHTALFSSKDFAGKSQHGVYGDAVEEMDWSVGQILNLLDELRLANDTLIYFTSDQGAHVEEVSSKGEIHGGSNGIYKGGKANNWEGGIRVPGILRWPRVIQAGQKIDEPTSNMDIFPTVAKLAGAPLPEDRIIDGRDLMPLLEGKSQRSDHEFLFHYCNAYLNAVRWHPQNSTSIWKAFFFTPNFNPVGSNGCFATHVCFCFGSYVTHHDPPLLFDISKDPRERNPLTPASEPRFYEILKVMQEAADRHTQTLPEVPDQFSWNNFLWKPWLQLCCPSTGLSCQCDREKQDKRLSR

Carbonic anhydrase 2 = Carbonic anhydrase 2 (Bos taurus, UniProt P00921)
Chain of Carbonic anhydrase 2 (P00921 whole entry): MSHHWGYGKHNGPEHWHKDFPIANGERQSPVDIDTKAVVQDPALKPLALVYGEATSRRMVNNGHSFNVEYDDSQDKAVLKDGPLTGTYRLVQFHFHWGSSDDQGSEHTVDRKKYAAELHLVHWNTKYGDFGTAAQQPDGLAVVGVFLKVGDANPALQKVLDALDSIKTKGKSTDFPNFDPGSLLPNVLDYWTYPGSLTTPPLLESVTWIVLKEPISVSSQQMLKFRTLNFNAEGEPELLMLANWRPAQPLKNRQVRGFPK

physchem [6] = test: physchem
Staphylococcus hominis = test: microbe, parasite or virus in culture; assay type: functional; settings: IP8203
Bacterial 70S ribosome = assay type: subcellular, Bacteria

CC[C@H](NC(=O)[C@H](CC1CCCCC1)NC(=O)[C@H](CCC(=O)O)NC(=O)[C@@H](NC(=O)[C@H](CCC(=O)O)NC(=O)[C@H](CC(=O)O)NC(C)=O)C(c1ccccc1)c1ccccc1)C(=O)O (Ac-DE[Dip]E[Cha][Abu]-OH)
Ki (NS3 protease): 700 nM

CC[C@H](C)[C@H](NC(=O)[C@H](CCC(=O)O)NC(=O)[C@H](CO)NC(=O)[C@@H](/C=C(\F)[C@H](C)N)C(C)C)C(=O)N[C@@H](CCC(N)=O)C(=O)N[C@@H](CC(C)C)C(=O)N[C@@H](CCSC)C(=O)N[C@@H](Cc1c[nH]cn1)C(=O)N[C@@H](CC(N)=O)C(=O)N[C@@H](CC(C)C)C(=O)NCC(=O)N[C@@H](CCCCN)C(=O)N[C@@H](Cc1c[nH]cn1)C(=O)N[C@@H](CC(C)C)C(=O)N[C@@H](CC(N)=O)C(=O)N[C@@H](CO)C(=O)N[C@@H](CCSC)C(=O)N[C@@H](CCC(=O)O)C(=O)N[C@@H](CCCN=C(N)N)C(=O)N[C@H](C(=O)N[C@@H](CCC(=O)O)C(=O)N[C@@H](Cc1c[nH]c2ccccc12)C(=O)N[C@@H](CC(C)C)C(=O)N[C@@H](CCCN=C(N)N)C(=O)N[C@@H](CCCCN)C(=O)N[C@@H](CCCCN)C(=O)N[C@@H](CC(C)C)C(=O)N[C@@H](CCC(N)=O)C(=O)N[C@@H](CC(=O)O)C(=O)N[C@H](C(=O)N[C@@H](Cc1c[nH]cn1)C(=O)N[C@@H](CC(N)=O)C(=O)N[C@@H](Cc1ccccc1)C(=O)N[C@H](C(=O)N[C@@H](C)C(N)=O)C(C)C)C(C)C)C(C)C (X3-SEIQLMHNLGKHLNSMERVEWLRKKLQDVHNFVA-NH2)
EC50 [1]: 4.4 nM
Kd [2]: 1.26 nM

CC(C)C[C@H](NC(=O)[C@@H](/C=C(\F)CNC(=O)CNC(=O)[C@@H](N)Cc1ccc(O)cc1)Cc1ccccc1)C(=O)O
Ki [3]: 43 nM
logD (physchem [4]): -0.11

C[N+](C)(CCCNc1cc(F)ccc1Nc1ccc(S(F)(F)(F)(F)F)cc1)Cc1ccc(Cl)c(Cl)c1
Kic [5]: 28 µM

CC(C)C[C@H](NC(=O)[C@@H](/C=C/CNC(=O)CNC(=O)[C@@H](N)Cc1ccc(O)cc1)Cc1ccccc1)C(=O)O
Ki [3]: 587 nM
logD (physchem [4]): -0.07

C[C@]12CC[C@@H]3c4ccc(CS(N)(=O)=O)cc4CC[C@H]3[C@@H]1CCC2=O
Ki (Steryl-sulfatase): 350000 nM

CC(=O)N[C@@H](CC(=O)O)C(=O)N[C@@H](CCC(=O)O)C(=O)N[C@H](C(=O)N[C@@H](CCC(=O)O)C(=O)N[C@@H](CC1CCCCC1)C(=O)N[C@@H](CC(F)F)C(=O)O)C(c1ccccc1)c1ccccc1 (Ac-DE[Dip]E[Cha][Abu(4,4-F2)]-OH)
Ki (NS3 protease): 30 nM

NS(=O)(=O)Cc1ccccc1 [PHENYLMETHANESULFONAMIDE]
IC50 (Carbonic anhydrase 2): 630 nM
pKa (physchem [6]): 10.5

CC(C)(C)c1ccc(Nc2ccc(F)cc2NCCC[N+](C)(C)Cc2ccc(Cl)c(Cl)c2)cc1
Kic [5]: 84 µM

CC[C@H](C)[C@H](NC(=O)[C@H](CCC(=O)O)NC(=O)[C@H](CO)NC(=O)[C@H](C)/C=C(\Cl)[C@H](C)N)C(=O)N[C@@H](CCC(N)=O)C(=O)N[C@@H](CC(C)C)C(=O)N[C@@H](CCSC)C(=O)N[C@@H](Cc1c[nH]cn1)C(=O)N[C@@H](CC(N)=O)C(=O)N[C@@H](CC(C)C)C(=O)NCC(=O)N[C@@H](CCCCN)C(=O)N[C@@H](Cc1c[nH]cn1)C(=O)N[C@@H](CC(C)C)C(=O)N[C@@H](CC(N)=O)C(=O)N[C@@H](CO)C(=O)N[C@@H](CCSC)C(=O)N[C@@H](CCC(=O)O)C(=O)N[C@@H](CCCN=C(N)N)C(=O)N[C@H](C(=O)N[C@@H](CCC(=O)O)C(=O)N[C@@H](Cc1c[nH]c2ccccc12)C(=O)N[C@@H](CC(C)C)C(=O)N[C@@H](CCCN=C(N)N)C(=O)N[C@@H](CCCCN)C(=O)N[C@@H](CCCCN)C(=O)N[C@@H](CC(C)C)C(=O)N[C@@H](CCC(N)=O)C(=O)N[C@@H](CC(=O)O)C(=O)N[C@H](C(=O)N[C@@H](Cc1c[nH]cn1)C(=O)N[C@@H](CC(N)=O)C(=O)N[C@@H](Cc1ccccc1)C(=O)N[C@H](C(=O)N[C@@H](C)C(N)=O)C(C)C)C(C)C)C(C)C (X4-SEIQLMHNLGKHLNSMERVEWLRKKLQDVHNFVA-NH2)
EC50 [1]: 5.5 nM
Kd [2]: 1.26 nM

C[N+](C)(CCCNc1cc(F)ccc1Nc1ccc(C(F)(F)F)cc1)Cc1ccc(Cl)c(Cl)c1
Kic [5]: 24 µM

CC[C@H](C)[C@H](NC(=O)[C@H](CCC(=O)O)NC(=O)[C@H](CO)NC(=O)[C@@H](/C=C(\Cl)[C@H](C)N)C(C)C)C(=O)N[C@@H](CCC(N)=O)C(=O)N[C@@H](CC(C)C)C(=O)N[C@@H](CCSC)C(=O)N[C@@H](Cc1c[nH]cn1)C(=O)N[C@@H](CC(N)=O)C(=O)N[C@@H](CC(C)C)C(=O)NCC(=O)N[C@@H](CCCCN)C(=O)N[C@@H](Cc1c[nH]cn1)C(=O)N[C@@H](CC(C)C)C(=O)N[C@@H](CC(N)=O)C(=O)N[C@@H](CO)C(=O)N[C@@H](CCSC)C(=O)N[C@@H](CCC(=O)O)C(=O)N[C@@H](CCCN=C(N)N)C(=O)N[C@H](C(=O)N[C@@H](CCC(=O)O)C(=O)N[C@@H](Cc1c[nH]c2ccccc12)C(=O)N[C@@H](CC(C)C)C(=O)N[C@@H](CCCN=C(N)N)C(=O)N[C@@H](CCCCN)C(=O)N[C@@H](CCCCN)C(=O)N[C@@H](CC(C)C)C(=O)N[C@@H](CCC(N)=O)C(=O)N[C@@H](CC(=O)O)C(=O)N[C@H](C(=O)N[C@@H](Cc1c[nH]cn1)C(=O)N[C@@H](CC(N)=O)C(=O)N[C@@H](Cc1ccccc1)C(=O)N[C@H](C(=O)N[C@@H](C)C(N)=O)C(C)C)C(C)C)C(C)C (X1-SEIQLMHNLGKHLNSMERVEWLRKKLQDVHNFVA-NH2)
EC50 [1]: 7.9 nM
Kd [2]: 1.26 nM

CC1=C\[C@@H](O)C[C@@H](O)Cc2nc(co2)C(=O)N2CCC[C@@H]2C(=O)O[C@H](C(C)C)[C@H](C)/C=C/C(=O)NC\C=C\1
MIC (Staphylococcus hominis): 1 µg/mL (≈ 1.89 µM)
IC50 (Bacterial 70S ribosome): 50 nM

CC(C)C[C@H](NC(=O)[C@H](Cc1ccccc1)OC(=O)CNC(=O)CNC(=O)[C@@H](N)Cc1ccc(O)cc1)C(=O)O (H-YGG[PhLac]L-OH)
Ki [3]: 34 nM

CC[C@H](C)[C@H](NC(=O)[C@H](CCC(=O)O)NC(=O)[C@H](CO)NC(=O)[C@H](C)/C=C(\F)[C@H](C)N)C(=O)N[C@@H](CCC(N)=O)C(=O)N[C@@H](CC(C)C)C(=O)N[C@@H](CCSC)C(=O)N[C@@H](Cc1c[nH]cn1)C(=O)N[C@@H](CC(N)=O)C(=O)N[C@@H](CC(C)C)C(=O)NCC(=O)N[C@@H](CCCCN)C(=O)N[C@@H](Cc1c[nH]cn1)C(=O)N[C@@H](CC(C)C)C(=O)N[C@@H](CC(N)=O)C(=O)N[C@@H](CO)C(=O)N[C@@H](CCSC)C(=O)N[C@@H](CCC(=O)O)C(=O)N[C@@H](CCCN=C(N)N)C(=O)N[C@H](C(=O)N[C@@H](CCC(=O)O)C(=O)N[C@@H](Cc1c[nH]c2ccccc12)C(=O)N[C@@H](CC(C)C)C(=O)N[C@@H](CCCN=C(N)N)C(=O)N[C@@H](CCCCN)C(=O)N[C@@H](CCCCN)C(=O)N[C@@H](CC(C)C)C(=O)N[C@@H](CCC(N)=O)C(=O)N[C@@H](CC(=O)O)C(=O)N[C@H](C(=O)N[C@@H](Cc1c[nH]cn1)C(=O)N[C@@H](CC(N)=O)C(=O)N[C@@H](Cc1ccccc1)C(=O)N[C@H](C(=O)N[C@@H](C)C(N)=O)C(C)C)C(C)C)C(C)C (X2-SEIQLMHNLGKHLNSMERVEWLRKKLQDVHNFVA-NH2)
EC50 [1]: 9.1 nM
Kd [2]: 6.31 nM

CC1=C\[C@@H](O)C[C@H](O)Cc2nc(co2)C(=O)N2CCC[C@@H]2C(=O)O[C@H](C(C)C)[C@H](C)/C=C/C(=O)NC\C=C\1
MIC (Staphylococcus hominis): 32 µg/mL (≈ 60.4 µM)
IC50 (Bacterial 70S ribosome): 6000 nM

CC(=O)N[C@@H](CC(=O)O)C(=O)N[C@@H](CCC(=O)O)C(=O)N[C@H](C(=O)N[C@@H](CCC(=O)O)C(=O)N[C@@H](CC1CCCCC1)C(=O)N[C@@H](CS)C(=O)O)C(c1ccccc1)c1ccccc1 (Ac-DE[Dip]E[Cha]C-OH)
Ki (NS3 protease): 40 nM

NS(=O)(=O)C(F)(F)c1ccccc1 [PHENYLDIFLUOROMETHANESULFONAMIDE]
IC50 (Carbonic anhydrase 2): 58 nM
pKa (physchem [6]): 7.7

NS(=O)(=O)C(F)c1ccccc1 (stereo unspecified)
IC50 (Carbonic anhydrase 2): 220 nM
pKa (physchem [6]): 8.8

CC(C)C[C@H](NC(=O)[C@H](Cc1ccccc1)NC(=S)CNC(=O)CNC(=O)[C@@H](N)Cc1ccc(O)cc1)C(=O)O
Ki [3]: 47 nM
